According to patent publication US12655125B2 (SIRONAX LTD., priority 2020, dated 2026):
pEC50: −log10 of the molar value.

tested on: HT-29 cells; assay: HT29 Cells 0FBS Assay In Vitro (TNF-α/SMAC mimetic/zVAD-FMK induced necroptosis, CellTiter-Glo cell viability); type: cell-based; settings: Homo sapiens; HT-29 cells, FBS free medium, TNF-α (10 ng/ml), SMAC mimetic (6 uM), zVAD-FMK (10 μM), 20 hours; geometric mean EC50; read-out: Cell activity (EC50) of Compounds 117-281
Procedure, shortened: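 Viability was measured by ATP luminescence (CellTiter-Glo) after 20 h at 37° C of compound exposure in 10-point, 1:3 dilutions. Necroptosis in FBS-free HT-29 cultures was driven by a TNF-α (10 ng/ml), SMAC mimetic (6 μM) and zVAD-FMK (10 μM) cocktail. EC50 values are geometric means from duplicate curves.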

| SMILES | pEC50 |
| --- | --- |
| Cc1nn(-c2cc(OC3CN(C(=O)N4N=CC[C@H]4c4cc(F)cc(F)c4)C3)c(F)cn2)c(C)c1S(=O)(=O)NC1COC1 [compound 240] | 7.00 to 10.00 |
| Cc1nn(-c2cc(OC3CN(C(=O)N4N=CC[C@H]4c4cc(F)cc(F)c4)C3)c(F)cn2)c(C)c1S(=O)(=O)NC1CCOCC1 [compound 241, (S)-1-(4-((1-(5-(3,5-difluorophenyl)-4,5-dihydro-1H-pyrazole-1-carbonyl)azetidin-3-yl)oxy)-5-fluoropyridin-2-yl)-3,5-dimethyl-N-(tetrahydro-2H-pyran-4-yl)-1H-pyrazole-4-sulfonamide] | 7.00 to 10.00 |
| Cc1nn(-c2cc(OC3CN(C(=O)N4N=CC[C@H]4c4cc(F)cc(F)c4)C3)c(F)cn2)c(C)c1S(=O)(=O)NC1CCCCC1 [compound 242, (S)—N-cyclohexyl-1-(4-((1-(5-(3,5-difluorophenyl)-4,5-dihydro-1H-pyrazole-1-carbonyl)azetidin-3-yl)oxy)-5-fluoropyridin-2-yl)-3,5-dimethyl-1H-pyrazole-4-sulfonamide] | 7.00 to 10.00 |
| Cc1nn(-c2cc(OC3CN(C(=O)N4N=CC[C@H]4c4cc(F)cc(F)c4)C3)c(F)cn2)c(C)c1S(=O)(=O)Nc1ccccc1 [compound 243, (S)-1-(4-((1-(5-(3,5-difluorophenyl)-4,5-dihydro-1H-pyrazole-1-carbonyl)azetidin-3-yl)oxy)-5-fluoropyridin-2-yl)-3,5-dimethyl-N-phenyl-1H-pyrazole-4-sulfonamide] | 7.00 to 10.00 |
| Cc1nn(-c2cc(OC3CN(C(=O)N4N=CC[C@H]4c4cc(F)cc(F)c4)C3)c(F)cn2)c(C)c1S(=O)(=O)NCCO [compound 244, (S)-1-(4-((1-(5-(3,5-difluorophenyl)-4,5-dihydro-1H-pyrazole-1-carbonyl)azetidin-3-yl)oxy)-5-fluoropyridin-2-yl)-N-(2-hydroxyethyl)-3,5-dimethyl-1H-pyrazole-4-sulfonamide] | 7.00 to 10.00 |
| Cc1c(-c2cc(OC3CN(C(=O)N4N=CC[C@H]4c4cc(F)cc(F)c4)C3)c(F)cn2)nn(C)c1C(=O)O [compound 245, (S)-3-(4-((1-(5-(3,5-difluorophenyl)-4,5-dihydro-1H-pyrazole-1-carbonyl)azetidin-3-yl)oxy)-5-fluoropyridin-2-yl)-1,4-dimethyl-1H-pyrazole-5-carboxylic acid] | 7.00 to 10.00 |
| CNC(=O)c1c(C)c(-c2cc(OC3CN(C(=O)N4N=CC[C@H]4c4cc(F)cc(F)c4)C3)c(F)cn2)nn1C [compound 246, (S)-3-(4-((1-(5-(3,5-difluorophenyl)-4,5-dihydro-1H-pyrazole-1-carbonyl)azetidin-3-yl)oxy)-5-fluoropyridin-2-yl)-N,1,4-trimethyl-1H-pyrazole-5-carboxamide] | 7.00 to 10.00 |
| Cc1c(-c2cc(OC3CN(C(=O)N4N=CC[C@H]4c4cc(F)cc(F)c4)C3)c(F)cn2)nn(C)c1C(=O)NC1CCOCC1 [compound 247, (S)-3-(4-((1-(5-(3,5-difluorophenyl)-4,5-dihydro-1H-pyrazole-1-carbonyl)azetidin-3-yl)oxy)-5-fluoropyridin-2-yl)-1,4-dimethyl-N-(tetrahydro-2H-pyran-4-yl)-1H-pyrazole-5-carboxamide] | 7.00 to 10.00 |
| CONS(=O)(=O)c1c(C)nn(-c2cc(OC3CN(C(=O)N4N=CC[C@H]4c4cc(F)cc(F)c4)C3)c(F)cn2)c1C [compound 248, (S)-1-(4-((1-(5-(3,5-difluorophenyl)-4,5-dihydro-1H-pyrazole-1-carbonyl)azetidin-3-yl)oxy)-5-fluoropyridin-2-yl)-N-methoxy-3,5-dimethyl-1H-pyrazole-4-sulfonamide] | 7.00 to 10.00 |
| Cc1nn(-c2cc(OC3CN(C(=O)N4N=CC[C@H]4c4cc(F)cc(F)c4)C3)c(F)cn2)c(C)c1C(=O)NC1CCC1 [compound 249, (S)—N-cyclobutyl-1-(4-((1-(5-(3,5-difluorophenyl)-4,5-dihydro-1H-pyrazole-1-carbonyl)azetidin-3-yl)oxy)-5-fluoropyridin-2-yl)-3,5-dimethyl-1H-pyrazole-4-carboxamide] | 7.00 to 10.00 |
| Cn1nccc1-c1cc(OC2CN(C(=O)N3N=CCC3c3cc(F)cc(F)c3)C2)c(F)cn1 (stereo not drawn) [compound 250, (5-(3,5-difluorophenyl)-4,5-dihydro-1H-pyrazol-1-yl)(3-((5-fluoro-2-(1-methyl-1H-pyrazol-5-yl)pyridin-4-yl)oxy)azetidin-1-yl)methanone] | 7.00 to 10.00 |
| Cc1nn(-c2cc(OC3CN(C(=O)N4N=CC[C@H]4c4cc(F)cc(F)c4)C3)c(F)cn2)c(C)c1C [compound 251, (S)-(5-(3,5-difluorophenyl)-4,5-dihydro-1H-pyrazol-1-yl)(3-((5-fluoro-2-(3,4,5-trimethyl-1H-pyrazol-1-yl)pyridin-4-yl)oxy)azetidin-1-yl)methanone] | 7.00 to 10.00 |
| Cc1nn(-c2cc(OC3CN(C(=O)N4N=CC[C@H]4c4cc(F)cc(F)c4)C3)c(F)cn2)c(C)c1C(=O)NO [compound 252, (S)-1-(4-((1-(5-(3,5-difluorophenyl)-4,5-dihydro-1H-pyrazole-1-carbonyl)azetidin-3-yl)oxy)-5-fluoropyridin-2-yl)-N-hydroxy-3,5-dimethyl-1H-pyrazole-4-carboxamide] | 7.00 to 10.00 |
| Cc1nn(-c2cc(OC3CN(C(=O)N4N=CC[C@H]4c4cc(F)cc(F)c4)C3)c(F)cn2)c(C)c1C(=O)NC#N [compound 253, (S)—N-cyano-1-(4-((1-(5-(3,5-difluorophenyl)-4,5-dihydro-1H-pyrazole-1-carbonyl)azetidin-3-yl)oxy)-5-fluoropyridin-2-yl)-3,5-dimethyl-1H-pyrazole-4-carboxamide] | 7.00 to 10.00 |
| Cc1nn(-c2cc(OC3CN(C(=O)N4N=CC[C@H]4c4cc(F)cc(F)c4)C3)c(F)cn2)c(C)c1C(=O)N[C@H]1C[C@@H](O)C1 [compound 254, 1-(4-((1-((S)-5-(3,5-difluorophenyl)-4,5-dihydro-1H-pyrazole-1-carbonyl)azetidin-3-yl)oxy)-5-fluoropyridin-2-yl)-N-((1s,3s)-3-hydroxycyclobutyl)-3,5-dimethyl-1H-pyrazole-4-carboxamide] | 7.00 to 10.00 |
| Cc1nn(-c2cc(OC3CN(C(=O)N4N=CC[C@H]4c4cc(F)cc(F)c4)C3)c(F)cn2)c(C)c1C(=O)N[C@H]1C[C@H](O)C1 [compound 255, 1-(4-((1-((S)-5-(3,5-difluorophenyl)-4,5-dihydro-1H-pyrazole-1-carbonyl)azetidin-3-yl)oxy)-5-fluoropyridin-2-yl)-N-((1r,3r)-3-hydroxycyclobutyl)-3,5-dimethyl-1H-pyrazole-4-carboxamide] | 7.00 to 10.00 |
| Cc1nn(-c2cc(OC3CN(C(=O)N4N=CC[C@H]4c4cc(F)cc(F)c4)C3)c(F)cn2)c(C)c1C(=O)NCCN(C)C [compound 256, (S)-1-(4-((1-(5-(3,5-difluorophenyl)-4,5-dihydro-1H-pyrazole-1-carbonyl)azetidin-3-yl)oxy)-5-fluoropyridin-2-yl)-N-(2-(dimethylamino)ethyl)-3,5-dimethyl-1H-pyrazole-4-carboxamide] | 7.00 to 10.00 |
| Cc1nn(-c2cc(OC3CN(C(=O)N4N=CC[C@H]4c4cc(F)cc(F)c4)C3)c(F)cn2)c(C)c1C(=O)N[C@H]1CCOC1 [compound 257, 1-(4-((1-((S)-5-(3,5-difluorophenyl)-4,5-dihydro-1H-pyrazole-1-carbonyl)azetidin-3-yl)oxy)-5-fluoropyridin-2-yl)-3,5-dimethyl-N—((S)-tetrahydrofuran-3-yl)-1H-pyrazole-4-carboxamide] | 7.00 to 10.00 |
| Cc1nn(-c2cc(OC3CN(C(=O)N4N=CC[C@H]4c4cc(F)cc(F)c4)C3)c(F)cn2)c(C)c1C(=O)N[C@@H]1CCOC1 [compound 258, 1-(4-((1-((S)-5-(3,5-difluorophenyl)-4,5-dihydro-1H-pyrazole-1-carbonyl)azetidin-3-yl)oxy)-5-fluoropyridin-2-yl)-3,5-dimethyl-N—((R)-tetrahydrofuran-3-yl)-1H-pyrazole-4-carboxamide] | 7.00 to 10.00 |
| Cc1nn(-c2cc(OC3CN(C(=O)N4N=CC[C@H]4c4cc(F)cc(F)c4)C3)c(F)cn2)c(C)c1CCO [compound 259, (S)-(5-(3,5-difluorophenyl)-4,5-dihydro-1H-pyrazol-1-yl)(3-((5-fluoro-2-(4-(2-hydroxyethyl)-3,5-dimethyl-1H-pyrazol-1-yl)pyridin-4-yl)oxy)azetidin-1-yl)methanone] | 7.00 to 10.00 |
| O=C(N1CC(Oc2cc(-c3ccn[nH]3)ncc2F)C1)N1N=CC[C@H]1c1cc(F)cc(F)c1 [compound 261, (S)-(5-(3,5-difluorophenyl)-4,5-dihydro-1H-pyrazol-1-yl)(3-((5-fluoro-2-(1H-pyrazol-5-yl)pyridin-4-yl)oxy)azetidin-1-yl)methanone] | 7.00 to 10.00 |
| Cc1c(-c2cc(OC3CN(C(=O)N4N=CC[C@H]4c4cc(F)cc(F)c4)C3)c(F)cn2)nn(C)c1C(=O)NC1COC1 [compound 262, (S)-3-(4-((1-(5-(3,5-difluorophenyl)-4,5-dihydro-1H-pyrazole-1-carbonyl)azetidin-3-yl)oxy)-5-fluoropyridin-2-yl)-1,4-dimethyl-N-(oxetan-3-yl)-1H-pyrazole-5-carboxamide] | 7.00 to 10.00 |
| Cc1c(-c2cc(OC3CN(C(=O)N4N=CC[C@H]4c4cc(F)cc(F)c4)C3)c(F)cn2)nn(C)c1C(=O)NC1CC(O)C1 (stereo partly drawn) [compound 263, (S)-3-(4-((1-(5-(3,5-difluorophenyl)-4,5-dihydro-1H-pyrazole-1-carbonyl)azetidin-3-yl)oxy)-5-fluoropyridin-2-yl)-N-(3-hydroxycyclobutyl)-1,4-dimethyl-1H-pyrazole-5-carboxamide] | 7.00 to 10.00 |
| Cc1c(-c2cc(OC3CN(C(=O)N4N=CC[C@H]4c4cc(F)cc(F)c4)C3)c(F)cn2)nn(C)c1C(=O)NC1CCC1 [compound 264, (S)—N-cyclobutyl-3-(4-((1-(5-(3,5-difluorophenyl)-4,5-dihydro-1H-pyrazole-1-carbonyl)azetidin-3-yl)oxy)-5-fluoropyridin-2-yl)-1,4-dimethyl-1H-pyrazole-5-carboxamide] | 7.00 to 10.00 |
